In PubChem BioAssay (NCI):
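All cell lines were grown in 96-well plates and treated with compound for 48 hours. TGI: concentration producing complete growth inhibition.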

Key:
Experiment in all cases: growth of human tumour cells (NCI), 48 h
[1] = test system: SF-295 CNS
[2] = test system: PC-3 prostate
[3] = test system: A498 renal
[4] = test system: RPMI-8226 leukemia
[5] = test system: MDA-N
[6] = test system: SNB-19 CNS
[7] = test system: HCT-116 colon
[8] = test system: HT29 colon
[9] = test system: 786-0 renal
[10] = test system: MCF7 breast
[11] = test system: CCRF-CEM leukemia
[12] = test system: SF-268 CNS
[13] = test system: SK-OV-3 ovarian
[14] = test system: NCI-H226 lung
[15] = test system: SK-MEL-5 melanoma
[16] = test system: MALME-3M melanoma
[17] = test system: MDA-MB-231 breast
[18] = test system: SNB-75 CNS
[19] = test system: KM12 colon
[20] = test system: COLO 205 colon
[21] = test system: M14 melanoma
[22] = test system: DU-145 prostate
[23] = test system: TK-10 renal
[24] = test system: CAKI-1 renal
[25] = test system: HS 578T breast
[26] = test system: LOX IMVI melanoma
[27] = test system: UACC-257 melanoma
[28] = test system: HCT-15 colon
[29] = test system: UO-31 renal
[30] = test system: OVCAR-8 ovarian
[31] = test system: MOLT-4 leukemia
[32] = test system: OVCAR-4 ovarian
[33] = test system: T-47D breast
[34] = test system: BT-549 breast
[35] = test system: SK-MEL-28 melanoma
[36] = test system: EKVX NSCLC
[37] = test system: MDA-MB-435
[38] = test system: OVCAR-5 ovarian
[39] = test system: SR leukemia
[40] = test system: NCI-H460 lung
[41] = test system: NCI-H522 lung
[42] = test system: RXF 393 renal
[43] = test system: SW-620 colon
[44] = test system: A549 NSCLC
[45] = test system: HOP-62 NSCLC
[46] = test system: ACHN renal
[47] = test system: SN12C renal
[48] = test system: U251 CNS
[49] = test system: OVCAR-3 ovarian
[50] = test system: UACC-62 melanoma
[51] = test system: IGROV1 ovarian
[52] = test system: SF-539 CNS
[53] = test system: NCI/ADR-RES ovarian
[54] = test system: SK-MEL-2 melanoma
[55] = test system: K-562 leukemia
[56] = test system: HL-60(TB) leukemia
[57] = test system: HOP-92 NSCLC
[58] = test system: HCC-2998 colon
[59] = test system: NCI-H23 lung

NC(=O)C1=NNc2ccccc2C(=O)N1c1ccccc1
TGI [1]: > 100 µM | TGI [2]: > 100 µM | TGI [3]: > 100 µM | TGI [4]: > 100 µM | TGI [5]: > 100 µM | TGI [6]: > 100 µM | TGI [7]: > 100 µM | TGI [8]: > 100 µM | TGI [9]: > 100 µM | TGI [10]: > 100 µM | TGI [11]: > 100 µM | TGI [12]: > 100 µM | TGI [13]: > 100 µM | TGI [14]: > 100 µM | TGI [15]: > 100 µM | TGI [16]: > 100 µM | TGI [17]: > 100 µM | TGI [18]: > 100 µM | TGI [19]: > 100 µM | TGI [20]: > 100 µM | TGI [21]: > 100 µM | TGI [22]: > 100 µM | TGI [23]: > 100 µM | TGI [24]: > 100 µM | TGI [25]: > 100 µM | TGI [26]: > 100 µM | TGI [27]: > 100 µM | TGI [28]: > 100 µM | TGI [29]: > 100 µM | TGI [30]: > 100 µM | TGI [31]: > 100 µM | TGI [32]: > 100 µM | TGI [33]: > 100 µM | TGI [34]: > 100 µM | TGI [35]: > 100 µM | TGI [36]: > 100 µM | TGI [37]: > 100 µM | TGI [38]: > 100 µM | TGI [39]: > 100 µM | TGI [40]: > 100 µM | TGI [41]: > 100 µM | TGI [42]: > 100 µM | TGI [43]: > 100 µM | TGI [44]: > 100 µM | TGI [45]: > 100 µM | TGI [46]: > 100 µM | TGI [47]: > 100 µM | TGI [48]: > 100 µM | TGI [49]: > 100 µM | TGI [50]: > 100 µM | TGI [51]: > 100 µM | TGI [52]: > 100 µM | TGI [53]: > 100 µM | TGI [54]: > 100 µM

O=C(O)C1C(C(=O)Nc2ccc3c(c2)Cc2ccccc2-3)C2(Cl)C(Cl)=C(Cl)C1(Cl)C2(Cl)Cl (stereo not drawn)
TGI [1]: > 100 µM | TGI [2]: 30 µM | TGI [3]: 47.7 µM | TGI [4]: 32 µM | TGI [5]: > 100 µM | TGI [6]: > 100 µM | TGI [7]: 38.1 µM | TGI [8]: 41.7 µM | TGI [9]: > 100 µM | TGI [10]: 62.2 µM | TGI [11]: 38 µM | TGI [12]: 64.5 µM | TGI [13]: > 100 µM | TGI [14]: 88 µM | TGI [15]: 27.5 µM | TGI [16]: 44.6 µM | TGI [17]: 41.6 µM | TGI [18]: 91.8 µM | TGI [19]: 39 µM | TGI [20]: 31.4 µM | TGI [21]: 42.7 µM | TGI [22]: > 100 µM | TGI [55]: 13.5 µM | TGI [56]: 55.8 µM | TGI [23]: 68.1 µM | TGI [24]: > 100 µM | TGI [25]: 49.2 µM | TGI [26]: 32.3 µM | TGI [27]: 48.2 µM | TGI [28]: 48.5 µM | TGI [29]: 55.5 µM | TGI [30]: 43 µM | TGI [31]: 26.1 µM | TGI [32]: > 100 µM | TGI [57]: 57.3 µM | TGI [33]: > 100 µM | TGI [34]: 39.2 µM | TGI [35]: 46.3 µM | TGI [36]: 97.6 µM | TGI [37]: 76.8 µM | TGI [38]: 38.6 µM | TGI [58]: 34.8 µM | TGI [41]: 39.2 µM | TGI [42]: 43.1 µM | TGI [43]: 64.5 µM | TGI [44]: > 100 µM | TGI [45]: > 100 µM | TGI [46]: > 100 µM | TGI [47]: > 100 µM | TGI [48]: 29.7 µM | TGI [59]: 31.3 µM | TGI [49]: 35.9 µM | TGI [50]: 31.1 µM | TGI [51]: 44.4 µM | TGI [52]: 28.9 µM | TGI [53]: > 100 µM | TGI [54]: 36.2 µM

Cc1[nH]c(=O)nc(N/N=C/c2ccc(Cl)cc2)c1C(=O)NC(C)(CO)CO
TGI [1]: > 100 µM | TGI [2]: > 100 µM | TGI [3]: > 100 µM | TGI [4]: > 100 µM | TGI [5]: > 100 µM | TGI [6]: > 100 µM | TGI [7]: > 100 µM | TGI [8]: > 100 µM | TGI [10]: > 100 µM | TGI [11]: > 100 µM | TGI [12]: > 100 µM | TGI [13]: > 100 µM | TGI [14]: > 100 µM | TGI [15]: > 100 µM | TGI [16]: > 100 µM | TGI [18]: > 100 µM | TGI [19]: > 100 µM | TGI [20]: > 100 µM | TGI [21]: > 100 µM | TGI [22]: > 100 µM | TGI [55]: > 100 µM | TGI [56]: > 100 µM | TGI [23]: > 100 µM | TGI [24]: > 100 µM | TGI [25]: > 100 µM | TGI [26]: > 100 µM | TGI [27]: > 100 µM | TGI [28]: > 100 µM | TGI [29]: > 100 µM | TGI [30]: > 100 µM | TGI [31]: > 100 µM | TGI [32]: > 100 µM | TGI [57]: > 100 µM | TGI [33]: > 100 µM | TGI [34]: > 100 µM | TGI [35]: > 100 µM | TGI [36]: > 100 µM | TGI [37]: > 100 µM | TGI [38]: > 100 µM | TGI [39]: > 100 µM | TGI [58]: > 100 µM | TGI [40]: > 100 µM | TGI [42]: > 100 µM | TGI [43]: > 100 µM | TGI [45]: > 100 µM | TGI [46]: > 100 µM | TGI [47]: > 100 µM | TGI [48]: > 100 µM | TGI [59]: > 100 µM | TGI [49]: > 100 µM | TGI [50]: > 100 µM | TGI [51]: > 100 µM | TGI [53]: > 100 µM | TGI [54]: > 100 µM

CC(C)C1(C)N=C(C(F)(F)F)c2cc(C(=O)C(F)(F)F)c3ccccc3c2N1 (stereo not drawn)
TGI [1]: 11.8 µM | TGI [2]: 6.75 µM | TGI [3]: 28.7 µM | TGI [4]: > 27 µM | TGI [5]: 13 µM | TGI [6]: 16.6 µM | TGI [7]: 11.8 µM | TGI [8]: 13.5 µM | TGI [9]: 15.8 µM | TGI [10]: 14.7 µM | TGI [11]: > 100 µM | TGI [12]: 13.7 µM | TGI [13]: 30.2 µM | TGI [14]: 30.4 µM | TGI [15]: 25.9 µM | TGI [16]: 12.7 µM | TGI [17]: 11.2 µM | TGI [18]: 7.96 µM | TGI [19]: 12.7 µM | TGI [20]: 15.8 µM | TGI [21]: 18.2 µM | TGI [22]: 14.1 µM | TGI [55]: > 100 µM | TGI [56]: 23.3 µM | TGI [23]: 15.5 µM | TGI [24]: 9.74 µM | TGI [25]: 11 µM | TGI [26]: 7.01 µM | TGI [27]: 19.5 µM | TGI [28]: 14.1 µM | TGI [29]: 14.1 µM | TGI [30]: 17.6 µM | TGI [31]: 18.1 µM | TGI [32]: 18.9 µM | TGI [33]: 11.4 µM | TGI [34]: 10.7 µM | TGI [35]: 20.8 µM | TGI [36]: 18.4 µM | TGI [37]: 11.3 µM | TGI [38]: 24.5 µM | TGI [39]: > 100 µM | TGI [58]: 11.9 µM | TGI [40]: 14.6 µM | TGI [41]: 7.16 µM | TGI [42]: 10.1 µM | TGI [43]: > 51.6 µM | TGI [44]: 23.5 µM | TGI [45]: 18.5 µM | TGI [46]: 12 µM | TGI [47]: 11 µM | TGI [48]: 11.1 µM | TGI [59]: 8.12 µM | TGI [49]: 10.6 µM | TGI [50]: 15.3 µM | TGI [51]: 3.28 µM | TGI [52]: 20.8 µM | TGI [53]: 9.09 µM | TGI [54]: 6.99 µM
